Consider six compounds from patent US20230240297A1, “SELECTIVE HERBICIDES BASED ON SUBSTITUTED ISOXAZOLIN CARBOXAMIDES AND CYPROSULFAMIDE” (Bayer Aktiengesellschaft, priority 2020, published 2023).

The test system of data set [1] is ZEAMA Sileno. As to the kind of experiment: Tank-mix; post-emergence, crop damage with and without safener. The conditions noted are these: for HER effect + SAF / HER effect: Final assessment; for HER effect: no safener. Type of data set: in vivo, maize. The method, then:
Seeds of crops (spring wheat, TRZAS; spring barley, HORVS; maize, ZEAMA) were placed in sandy loam soil in peat pots, covered with soil and cultivated in a greenhouse under good growth conditions. Two to three weeks after sowing, the test plants were treated at the 1 to 3-leaf stage. The herbicide/safener active compound combinations according to the invention, formulated as wettable powders or emulsion concentrates, and, in parallel tests, the correspondingly formulated individual active compounds were sprayed onto the green parts of the plants in various dosages using an amount of water of 300 1/ha (converted).
The pots were returned under good growing conditions in a glasshouse and a visual assessment of herbicidal effects was made at intervals from 1 to 3 weeks after herbicide application (DAT = days after treatment). Assessment was on a percentage basis in comparison with untreated control plants (0% = no injury, 100% = complete kill).

Data set [2] has as its system ZEAMA Sileno. As to the kind of experiment: Seed treatment with safener; post-emergence herbicide application. Type of data set: in vivo, maize. As to conditions: Final assessment; for Reduction [%] / Reduction [Difference]: Cyprosulfamide 0.5 g a.i./kg seed; for Reduction [Difference]: damage without safener - damage with safener; for HER effect + SAF (crop damage with safener): Cyprosulfamide seed treatment 0.5 g a.i./kg seed; for HER effect (crop damage, herbicide without safener): no safener. The arrangement: Reduction [Difference]: scale not given here. The method, then: For the safener seed treatment, sufficient seeds of the respective crops (spring wheat, TRZAS; spring barley, HORVS; maize, ZEAMA) were weighed into screw top glass bottles approximately twice the volume of the seeds.
The specified safeners, formulated as wettable powder (WP) were weighed out so that the specified rates (g a.i./kg seed) would be obtained, dissolved in water (1 ml water per 10 g of seeds), and added to the seeds to produce a slurry.
The bottles were capped and then placed in an overhead shaker (set at medium speed for ca. 60 minutes) so that the seeds were evenly coated with the slurry. The bottles were uncapped and the seeds were either placed on paper and dried for an interval of 3-4 hours prior to sowing, or directly sown. Seeds were placed in sandy loam soil in pots of a diameter of 7-8 cm, covered with soil, and cultivated in a greenhouse under good growth conditions.
Post-emergence application of the specified herbicides was done when the plants had reached growth stage BBCH11-13, on two sets of plants:
a) seed treatment with safener, as described above b) no safener treatment
The herbicides were formulated as WP and sprayed onto the green parts of the plants as an aqueous suspension at an equivalent water application rate of 300 1/ha, with addition of wetting agent and adjuvants (e.g. Mero, 1.5 1/ha; ammonium sulphate, 2 kg/ha)
After application, the test plants were kept in the greenhouse under good growth conditions.
Values in the table below are mean values of at least 2 replicates.

The mark [3] stands for this setting: HER 2 g a.i./ha, cyprosulfamide 50 g a.i./ha.
The mark [4] stands for this setting: HER 2 g a.i./ha, cyprosulfamide 50 g a.i./ha, damage without safener - damage with safener.
[5] abbreviates: HER 8 g a.i./ha, cyprosulfamide 50 g a.i./ha.
[6] abbreviates: HER 32 g a.i./ha, cyprosulfamide 100 g a.i./ha.
Where [7] appears, read: HER dose 2 g a.i./ha + cyprosulfamide 50 g a.i./ha tank-mix.
Where [8] appears, read: HER dose 2 g a.i./ha, 0% = no injury, 100% = complete kill.
The mark [9] stands for this setting: HER dose 8 g a.i./ha + cyprosulfamide 50 g a.i./ha tank-mix.
Setting [10] is: HER dose 32 g a.i./ha + cyprosulfamide 100 g a.i./ha tank-mix.

As for `C=CC1(C(=O)NC2COC(C(=O)OC)C2)CC(c2cc(F)cc(F)c2)=NO1` (stereo not shown) [Example 1.70], the “Reduction [%]” value in data set [1] (setting [3]) was 77%; in data set [1] (setting [5]), 21%; in data set [1] (setting [6]) it was 41%; in data set [2] (HER dose 2 g a.i./ha), 80%; in data set [2] (HER dose 8 g a.i./ha), 77%; in data set [2] (HER dose 32 g a.i./ha) it was 67%. In addition, the “Reduction [Difference]” value was 68 in data set [1] (setting [4]); 20 in data set [1] (setting [5]); 40 in data set [1] (setting [6]); 70 in data set [2] (HER dose 2 g a.i./ha); 75 in data set [2] (HER dose 8 g a.i./ha); 66 in data set [2] (HER dose 32 g a.i./ha). Further, the “HER effect + SAF” value in data set [1] (setting [7]) turned out to be 20%; in data set [1] (setting [9]) it was 77%; in data set [1] (setting [10]) it was 58%. Also, the HER effect is 88% in data set [1] (setting [8]), 97% in data set [1] (HER dose 8 g a.i./ha) and 98% in data set [1] (HER dose 32 g a.i./ha). Besides, the entries for the “HER effect + SAF (crop damage with safener)” value in data set [2] (HER dose 2 g a.i./ha), in data set [2] (HER dose 8 g a.i./ha) and in data set [2] (HER dose 32 g a.i./ha) were 18%, 22% and 32%, respectively. The “HER effect (crop damage, herbicide without safener)” value in data set [2] (HER dose 2 g a.i./ha) is reported as 88%; in data set [2] (HER dose 8 g a.i./ha) it was 97%; in data set [2] (HER dose 32 g a.i./ha), 98%.
Regarding `COC(=O)C1C=CC(NC(=O)C2(C)CC(c3cc(Cl)cc(C#N)c3)=NO2)C1` (mixture of isomers) [Example 1.23], the “Reduction [%]” value in data set [1] (setting [5]) came out at 60%; in data set [1] (setting [6]), 67%; in data set [2] (HER dose 8 g a.i./ha), 100%; in data set [2] (HER dose 32 g a.i./ha), 96%. For the same compound, the “Reduction [Difference]” value was found to be 30 in data set [1] (setting [5]), 47 in data set [1] (setting [6]), 50 in data set [2] (HER dose 8 g a.i./ha) and 67 in data set [2] (HER dose 32 g a.i./ha). Further, the “HER effect + SAF” value is on record as 20% in data set [1] (setting [9]) and 23% in data set [1] (setting [10]). In addition, the HER effect in data set [1] (HER dose 8 g a.i./ha) amounted to 50%; in data set [1] (HER dose 32 g a.i./ha), 70%. The “HER effect + SAF (crop damage with safener)” value in data set [2] (HER dose 8 g a.i./ha) turned out to be 0%; in data set [2] (HER dose 32 g a.i./ha), 3%. In addition, the “HER effect (crop damage, herbicide without safener)” value in data set [2] (HER dose 8 g a.i./ha) is given as 50%; in data set [2] (HER dose 32 g a.i./ha), 70%.
On to `COC(=O)C1=CC(NC(=O)C2(C)CC(c3cc(F)cc(F)c3)=NO2)CC1` (stereo not shown) [Example 1.63], for which the “Reduction [%]” value in data set [1] (setting [3]) turned out to be 87%; in data set [1] (setting [5]) it was 73%; in data set [1] (setting [6]) it was 52%; in data set [2] (HER dose 2 g a.i./ha), 100%; in data set [2] (HER dose 8 g a.i./ha), 85%; in data set [2] (HER dose 32 g a.i./ha), 85%. The “Reduction [Difference]” value in data set [1] (setting [4]) amounted to 20; in data set [1] (setting [5]) it was 62; in data set [1] (setting [6]), 46; in data set [2] (HER dose 2 g a.i./ha), 23; in data set [2] (HER dose 8 g a.i./ha), 72; in data set [2] (HER dose 32 g a.i./ha), 75. The “HER effect + SAF” value stood at 3% in data set [1] (setting [7]), 23% in data set [1] (setting [9]) and 42% in data set [1] (setting [10]). Moreover, the results for the HER effect in data set [1] (setting [8]), in data set [1] (HER dose 8 g a.i./ha) and in data set [1] (HER dose 32 g a.i./ha) were 23%, 85% and 88%, respectively. Also, the “HER effect + SAF (crop damage with safener)” value in data set [2] (HER dose 2 g a.i./ha) is given as 0%; in data set [2] (HER dose 8 g a.i./ha) it was 13%; in data set [2] (HER dose 32 g a.i./ha), 13%. Further, the “HER effect (crop damage, herbicide without safener)” value in data set [2] (HER dose 2 g a.i./ha) worked out at 23%; in data set [2] (HER dose 8 g a.i./ha), 85%; in data set [2] (HER dose 32 g a.i./ha) it was 88%.
Consider `COC(=O)C1(C)CC(NC(=O)C2(C(C)(F)F)CC(c3cc(F)cc(F)c3)=NO2)CO1` (mixture of isomers) [Example 1.94], for which the “Reduction [%]” value worked out at 89% in data set [1] (setting [5]), 76% in data set [1] (setting [6]), 100% in data set [2] (HER dose 8 g a.i./ha) and 93% in data set [2] (HER dose 32 g a.i./ha). Further, the “Reduction [Difference]” value is on record as 81 in data set [1] (setting [5]), 71 in data set [1] (setting [6]), 91 in data set [2] (HER dose 8 g a.i./ha) and 87 in data set [2] (HER dose 32 g a.i./ha). Moreover, the results for the “HER effect + SAF” value in data set [1] (setting [9]) and in data set [1] (setting [10]) were 10% and 23%, respectively. Moreover, the HER effect in data set [1] (HER dose 8 g a.i./ha) was found to be 91%; in data set [1] (HER dose 32 g a.i./ha) it was 94%. The “HER effect + SAF (crop damage with safener)” value in data set [2] (HER dose 8 g a.i./ha) is 0%; in data set [2] (HER dose 32 g a.i./ha), 7%. The “HER effect (crop damage, herbicide without safener)” value in data set [2] (HER dose 8 g a.i./ha) is recorded as 91%; in data set [2] (HER dose 32 g a.i./ha), 94%.
For `COCCOC(=O)C1C=CC(NC(=O)C2(C(F)(F)F)CC(c3cc(F)cc(C#N)c3)=NO2)C1` (stereo not shown) [Example 1.2], the “Reduction [%]” value in data set [1] (setting [5]) stood at 44%; in data set [1] (setting [6]) it was 48%; in data set [2] (HER dose 8 g a.i./ha), 89%; in data set [2] (HER dose 32 g a.i./ha) it was 81%. The “Reduction [Difference]” value in data set [1] (setting [5]) was 40; in data set [1] (setting [6]), 46; in data set [2] (HER dose 8 g a.i./ha) it was 80; in data set [2] (HER dose 32 g a.i./ha), 78. Besides, the “HER effect + SAF” value in data set [1] (setting [9]) and in data set [1] (setting [10]) was 50% in each case. Further, the HER effect in data set [1] (HER dose 8 g a.i./ha) turned out to be 90%; in data set [1] (HER dose 32 g a.i./ha), 96%. Besides, the “HER effect + SAF (crop damage with safener)” value turned out to be 10% in data set [2] (HER dose 8 g a.i./ha) and 18% in data set [2] (HER dose 32 g a.i./ha). Also, the “HER effect (crop damage, herbicide without safener)” value in data set [2] (HER dose 8 g a.i./ha) amounted to 90%; in data set [2] (HER dose 32 g a.i./ha) it was 96%.
`C=CC1(C(=O)NC2COC(C(=O)OC)C2)CC(c2cc(F)cc(F)c2)=NO1` (stereo not shown) [Example 1.69]: the “Reduction [%]” value in data set [1] (setting [5]) is on record as 76%; in data set [1] (setting [6]) it was 73%; in data set [2] (HER dose 8 g a.i./ha), 82%; in data set [2] (HER dose 32 g a.i./ha), 75%. For the same compound, the “Reduction [Difference]” value in data set [1] (setting [5]) was found to be 70; in data set [1] (setting [6]), 68; in data set [2] (HER dose 8 g a.i./ha), 75; in data set [2] (HER dose 32 g a.i./ha), 70. For the same compound, the “HER effect + SAF” value stood at 22% in data set [1] (setting [9]) and 25% in data set [1] (setting [10]). The HER effect in data set [1] (HER dose 8 g a.i./ha) was determined as 92%; in data set [1] (HER dose 32 g a.i./ha), 93%. Moreover, the figures for the “HER effect + SAF (crop damage with safener)” value in data set [2] (HER dose 8 g a.i./ha) and in data set [2] (HER dose 32 g a.i./ha) were 17% and 23%, respectively. Also, the “HER effect (crop damage, herbicide without safener)” value in data set [2] (HER dose 8 g a.i./ha) came to 92%; in data set [2] (HER dose 32 g a.i./ha), 93%.
